Each compound was assayed on lambsquarters (assay: Test Example 5: herbicidal effect by foliage application, plastic box (Table 20, symbol O)). Conditions: 320 g/ha, foliage application after 14-day growth, evaluated three weeks after application.
Format: in vivo, lambsquarters (Chenopodium album)
Summary of the method: (§1)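 Post-emergence foliar test in sterilized diluvial soil. Compound applied as water-diluted emulsion at a predetermined rate to 14-day-old plants; evaluation at three weeks.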
For Cc1nn(C)c(=O)c(-c2c(-c3ccc(C(F)(F)F)cc3)sc3cc(Cl)ccc23)c1O [3-145], the “herbicidal effect on O: lambsquarters (evaluation grade 0-5)” value was 3 (Herbicidal rate of 40% or more and less than 70%).

Each compound was assayed on oval-leafed pondweed (assay: Test Example 2: herbicidal activity, application during weed generation under submerged conditions (Table 17, symbol C)). Conditions: AAH 320 g/ha; application during weed generation, submerged conditions.
Format: in vivo, oval-leafed pondweed (Monochoria vaginalis)
Summary of the method: (§2)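 Alluvial soil in Wagner pots was flooded to 4 cm depth and sown with the three weeds together; pots were kept in a greenhouse at 25° C. to 30° C. At the one to two leaf stage, an emulsion formulation diluted in water to a set rate went onto the water surface; scored three weeks later.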
With Cc1nn(C)c(=O)c(-c2c(-c3ccc(C(F)(F)F)cc3)sc3cc(Cl)ccc23)c1O [3-145] the “herbicidal effect rating, C: oval-leafed pondweed” value was 0 (Herbicidal rate of 5% or less (almost no effect)).

What follows are compounds tested on velvetleaf (assay: Test Example 5: herbicidal effect by foliage application, plastic box (Table 20, symbol M)). Conditions: 320 g/ha, foliage application after 14-day growth, evaluated three weeks after application.
Format: in vivo, velvetleaf (Abutilon theophrasti)
Summary of the method: as §1
For Cc1nn(C)c(=O)c(-c2c(-c3ccc(C(F)(F)F)cc3)sc3cc(Cl)ccc23)c1O [3-145], the “herbicidal effect on M: velvetleaf (evaluation grade 0-5)” value was 3 (Herbicidal rate of 40% or more and less than 70%).

The compounds below were run on Italian ryegrass (assay: Test Example 5: herbicidal effect by foliage application, plastic box (Table 20, symbol K)). Conditions: 320 g/ha, foliage application after 14-day growth, evaluated three weeks after application.
Format: in vivo, Italian ryegrass (Lolium multiflorum)
Summary of the method: as §1
With Cc1nn(C)c(=O)c(-c2c(-c3ccc(C(F)(F)F)cc3)sc3cc(Cl)ccc23)c1O [3-145] the “herbicidal effect on K: Italian ryegrass (evaluation grade 0-5)” value was 0 (Herbicidal rate of 5% or less (almost no effect)).

Each compound was assayed on Japanese bulrush (assay: Test Example 1: herbicidal activity, application before weed generation under submerged conditions (Table 16, symbol B)). Conditions: amount of applied herbicide 320 g/ha.
Format: in vivo, Japanese bulrush (Schoenoplectus juncoides)
Summary of the method: (§3)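 Submerged Wagner pots (alluvial soil, 4 cm water) sown with weed seeds and planted with 2.5-leaf rice seedlings; emulsifiable concentrate diluted in water applied to water surface on sowing day. Held in greenhouse at 25-30 °C; injury scored 0-5 by herbicidal rate after three weeks.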
Cc1nn(C)c(=O)c(-c2c(-c3ccc(C(F)(F)F)cc3)sc3cc(Cl)ccc23)c1O [3-145] was tested, and the “Herbicidal effect, B: Japanese bulrush” value was 2 (Herbicidal rate of 20% or more and less than 40%).

What follows are compounds tested on late watergrass (assay: Test Example 1: herbicidal activity, application before weed generation under submerged conditions (Table 16, symbol A)). Conditions: amount of applied herbicide 320 g/ha.
Format: in vivo, late watergrass (Echinochloa oryzicola)
Summary of the method: as §3
Cc1nn(C)c(=O)c(-c2c(-c3ccc(C(F)(F)F)cc3)sc3cc(Cl)ccc23)c1O [3-145] was tested, and the “Herbicidal effect, A: late watergrass” value was 3 (Herbicidal rate of 40% or more and less than 70%).

What follows are compounds tested on rice flat sedge (assay: Test Example 3: herbicidal effect by foliage application, Wagner pot (Table 18, symbol E)). Conditions: 320 g/ha.
Format: in vivo, rice flat sedge (Cyperus iria)
Summary of the method: (§4)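 Plants were sown in alluvial soil held under 0.1–0.5 cm standing water and grown 14 days in a greenhouse at 25–30 °C. An emulsifiable formulation, water-diluted to the set dose, was then sprayed onto the foliage, and effects were scored three weeks later using previously defined criteria.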
Cc1nn(C)c(=O)c(-c2c(-c3ccc(C(F)(F)F)cc3)sc3cc(Cl)ccc23)c1O [3-145] was tested, and the “herbicidal effect on rice flat sedge (E)” value was 4 (Herbicidal rate of 70% or more and less than 90%).

What follows are compounds tested on barnyard grass (assay: Test Example 3: herbicidal effect by foliage application, Wagner pot (Table 18, symbol H)). Conditions: 320 g/ha.
Format: in vivo, barnyard grass (Echinochloa crus-galli)
Summary of the method: as §4
In the case of Cc1nn(C)c(=O)c(-c2c(-c3ccc(C(F)(F)F)cc3)sc3cc(Cl)ccc23)c1O [3-145], the “herbicidal effect on barnyard grass (H)” value is reported as 3 (Herbicidal rate of 40% or more and less than 70%).

The compounds below were run on chickweed (assay: Test Example 5: herbicidal effect by foliage application, plastic box (Table 20, symbol P)). Conditions: 320 g/ha, foliage application after 14-day growth, evaluated three weeks after application.
Format: in vivo, common chickweed (Stellaria media)
Summary of the method: as §1
With Cc1nn(C)c(=O)c(-c2c(-c3ccc(C(F)(F)F)cc3)sc3cc(Cl)ccc23)c1O [3-145] the “herbicidal effect on P: chickweed (evaluation grade 0-5)” value was 0 (Herbicidal rate of 5% or less (almost no effect)).

What follows are compounds tested on windgrass (assay: Test Example 5: herbicidal effect by foliage application, plastic box (Table 20, symbol L)). Conditions: 320 g/ha, foliage application after 14-day growth, evaluated three weeks after application.
Format: in vivo, windgrass (Apera spica-venti)
Summary of the method: as §1
For Cc1nn(C)c(=O)c(-c2c(-c3ccc(C(F)(F)F)cc3)sc3cc(Cl)ccc23)c1O [3-145], the “herbicidal effect on L: windgrass (evaluation grade 0-5)” value was 5 (Herbicidal rate of 90% or more (almost completely withered)).

The compounds below were run on southern crabgrass (assay: Test Example 5: herbicidal effect by foliage application, plastic box (Table 20, symbol F)). Conditions: 320 g/ha, foliage application after 14-day growth, evaluated three weeks after application.
Format: in vivo, southern crabgrass (Digitaria ciliaris)
Summary of the method: as §1
For Cc1nn(C)c(=O)c(-c2c(-c3ccc(C(F)(F)F)cc3)sc3cc(Cl)ccc23)c1O [3-145], the “herbicidal effect on F: southern crabgrass (evaluation grade 0-5)” value was 0 (Herbicidal rate of 5% or less (almost no effect)).

These compounds were tested on barnyard grass (assay: Test Example 5: herbicidal effect by foliage application, plastic box (Table 20, symbol H)). Conditions: 320 g/ha, foliage application after 14-day growth, evaluated three weeks after application.
Format: in vivo, barnyard grass (Echinochloa crus-galli)
Summary of the method: as §1
For Cc1nn(C)c(=O)c(-c2c(-c3ccc(C(F)(F)F)cc3)sc3cc(Cl)ccc23)c1O [3-145], the “herbicidal effect on H: barnyard grass (evaluation grade 0-5)” value was 0 (Herbicidal rate of 5% or less (almost no effect)).

The compounds below were run on redroot pigweed (assay: Test Example 5: herbicidal effect by foliage application, plastic box (Table 20, symbol N)). Conditions: 320 g/ha, foliage application after 14-day growth, evaluated three weeks after application.
Format: in vivo, redroot pigweed (Amaranthus retroflexus)
Summary of the method: as §1
In the case of Cc1nn(C)c(=O)c(-c2c(-c3ccc(C(F)(F)F)cc3)sc3cc(Cl)ccc23)c1O [3-145], the “herbicidal effect on N: redroot pigweed (evaluation grade 0-5)” value is reported as 3 (Herbicidal rate of 40% or more and less than 70%).

These compounds were tested on late watergrass (assay: Test Example 2: herbicidal activity, application during weed generation under submerged conditions (Table 17, symbol A)). Conditions: AAH 320 g/ha; application during weed generation, submerged conditions.
Format: in vivo, late watergrass (Echinochloa oryzicola)
Summary of the method: as §2
With Cc1nn(C)c(=O)c(-c2c(-c3ccc(C(F)(F)F)cc3)sc3cc(Cl)ccc23)c1O [3-145] the “herbicidal effect rating, A: late watergrass” value was 3 (Herbicidal rate of 40% or more and less than 70%).

Each compound was assayed on Chinese sprangletop (assay: Test Example 3: herbicidal effect by foliage application, Wagner pot (Table 18, symbol D)). Conditions: 320 g/ha.
Format: in vivo, chinese sprangletop (Leptochloa chinensis)
Summary of the method: as §4
Cc1nn(C)c(=O)c(-c2c(-c3ccc(C(F)(F)F)cc3)sc3cc(Cl)ccc23)c1O [3-145] was tested, and the “herbicidal effect on Chinese sprangletop (D)” value was 5 (Herbicidal rate of 90% or more (almost completely withered)).

The compounds below were run on blackgrass (assay: Test Example 5: herbicidal effect by foliage application, plastic box (Table 20, symbol J)). Conditions: 320 g/ha, foliage application after 14-day growth, evaluated three weeks after application.
Format: in vivo, blackgrass (Alopecurus myosuroides)
Summary of the method: as §1
In the case of Cc1nn(C)c(=O)c(-c2c(-c3ccc(C(F)(F)F)cc3)sc3cc(Cl)ccc23)c1O [3-145], the “herbicidal effect on J: blackgrass (evaluation grade 0-5)” value is reported as 0 (Herbicidal rate of 5% or less (almost no effect)).

These compounds were tested on Japanese bulrush (assay: Test Example 2: herbicidal activity, application during weed generation under submerged conditions (Table 17, symbol B)). Conditions: AAH 320 g/ha; application during weed generation, submerged conditions.
Format: in vivo, Japanese bulrush (Schoenoplectus juncoides)
Summary of the method: as §2
With Cc1nn(C)c(=O)c(-c2c(-c3ccc(C(F)(F)F)cc3)sc3cc(Cl)ccc23)c1O [3-145] the “herbicidal effect rating, B: Japanese bulrush” value was 2 (Herbicidal rate of 20% or more and less than 40%).

What follows are compounds tested on oval-leafed pondweed (assay: Test Example 1: herbicidal activity, application before weed generation under submerged conditions (Table 16, symbol C)). Conditions: amount of applied herbicide 320 g/ha.
Format: in vivo, oval-leafed pondweed (Monochoria vaginalis)
Summary of the method: as §3
With Cc1nn(C)c(=O)c(-c2c(-c3ccc(C(F)(F)F)cc3)sc3cc(Cl)ccc23)c1O [3-145] the “Herbicidal effect, C: oval-leafed pondweed” value was 0 (Herbicidal rate of 5% or less (almost no effect)).

Each compound was assayed on green foxtail (assay: Test Example 5: herbicidal effect by foliage application, plastic box (Table 20, symbol G)). Conditions: 320 g/ha, foliage application after 14-day growth, evaluated three weeks after application.
Format: in vivo, green foxtail (Setaria viridis)
Summary of the method: as §1
With Cc1nn(C)c(=O)c(-c2c(-c3ccc(C(F)(F)F)cc3)sc3cc(Cl)ccc23)c1O [3-145] the “herbicidal effect on G: green foxtail (evaluation grade 0-5)” value was 2 (Herbicidal rate of 20% or more and less than 40%).

These compounds were tested on persian speedwell (assay: Test Example 5: herbicidal effect by foliage application, plastic box (Table 20, symbol R)). Conditions: 320 g/ha, foliage application after 14-day growth, evaluated three weeks after application.
Format: in vivo, Persian speedwell (Veronica persica)
Summary of the method: as §1
Cc1nn(C)c(=O)c(-c2c(-c3ccc(C(F)(F)F)cc3)sc3cc(Cl)ccc23)c1O [3-145] was tested, and the “herbicidal effect on R: persian speedwell (evaluation grade 0-5)” value was 0 (Herbicidal rate of 5% or less (almost no effect)).

Each compound was assayed on wild oat (assay: Test Example 5: herbicidal effect by foliage application, plastic box (Table 20, symbol I)). Conditions: 320 g/ha, foliage application after 14-day growth, evaluated three weeks after application.
Format: in vivo, wild oat (Avena fatua)
Summary of the method: as §1
With Cc1nn(C)c(=O)c(-c2c(-c3ccc(C(F)(F)F)cc3)sc3cc(Cl)ccc23)c1O [3-145] the “herbicidal effect on I: wild oat (evaluation grade 0-5)” value was 0 (Herbicidal rate of 5% or less (almost no effect)).

From US20230085307A1, “PYRIDAZINONE COMPOUND AND HERBICIDE” (NISSAN CHEMICAL CORPORATION, priority 2019, published 2023)
